# Measurements: patent EP1235833B1 (GLAXO GROUP LIMITED, priority 1999, dated 2001)
# Assay: Acid stability: acid-mediated hydrolytic decomposition, simulated stomach conditions, HPLC
# Assay type: physicochemical
# Conditions: for Compound left (%): 0.3 mg/mL in dilute hydrochloric acid at pH 1, 25°C
# Description: Compounds were tested for their stability towards acid-mediated hydrolytic decomposition employing a test designed to simulate stomach conditions. Each compound was incubated at an initial concentration of 0.3 mg/mL in dilute hydrochloric acid at pH 1 for 24 hours at 25°C. HPLC was run immediately for t=0 and at intervals up to approximately 24 hours. The results for compounds of Example 2, part b, Example 9, and for comparative phosphoramidates of 2',3'-dideoxy-adenosine (Compound 1093) and 2',3'-didehydro-2',3'-dideoxy-adenosine (Compound 1001), described in W096/29336A, are given in the table below.
structure (smiles),measurement,setting,value
COC(=O)C(C)(C)NP(=O)(OC[C@@H]1C=C[C@H](n2cnc3c(NCC4CC4)nc(N)nc32)C1)Oc1ccccc1 (relative stereo) [Example 9],Compound left (%),Time 0 hr,100%
same,Compound left (%),Time 13 hr,96%
same,Compound left (%),Time 24 hr,94%
same,Acid stability in words,"after 24 hours, dilute hydrochloric acid at pH 1, 25°C",remained intact
